# Test results: PMC11546786, “Designing Analogs of SAAP-148 with Enhanced Antimicrobial and Anti-LPS Activities” (International Journal of Molecular Sciences, 2024)
# Ends that are not written are not given here.
# Legend:
# [1] = test system: Klebsiella pneumonia (1.1736); assay type: cell-based, Klebsiella pneumoniae
# Text: (§1) The LL-37, SAAP-148 and its analogues peptides were synthesized according to the standard Fmoc procedure. The Fmoc-protected resin and monomers are first treated with a basic solvent (piperidine) to remove the amino protecting groups. The carboxyl group of the next amino acid is activated by an activator. The activated monomer reacts with the free amino group to form a peptide bond. These two steps are repeated in a cycle until the synthesis is complete. After synthesis, the peptide is eluted from the column and purified by reverse-phase semipreparative high-performance liquid chromatography as detailed in Table 1. The peptides were dissolved in PBS to create a 1000 μmol/L stock solution for subsequent use. The purity of the synthetic peptide exceeded 95%. Blood samples from healthy donors were obtained from the Fifth Medical Center of Chinese PLA General Hospital (Beijing, China). Human normal lung epithelial cells (BEAS-2B) and mouse mononuclear macrophages cells (RAW 264.7) were sourced from Beyotime Biotechnology (Beijing, China), along with the Enhanced Cell Counting Kit-8 (CCK-8) and nitric oxide detection kit. RPMI-1640 and DMEM were procured from Merck (Darmstadt, Germany), while FBS was obtained from ExCell Bio (Shanghai, China). LPS-B5 (from E. coli 055:B5) was procured from Invivogen (Toulouse, France). Five bacterial strains, including Escherichia coli (1.8732), Pseudomonas aeruginosa (1.2421), Klebsiella pneumonia (1.1736) as Gram-negative bacteria, and Staphylococcus aureus (1.8721) and Staphylococcus epidermidis (1.4260) as Gram-positive bacteria, were procured from the China General Microbiological Culture Collection Centre (CGMCC) (Beijing, China).
# (§2) The antibacterial activities of the peptides against […] were evaluated using a modified version of the Clinical Laboratory and Standards Institute (CLSI) broth microdilution method, as previously described. Briefly, the bacteria were cultured in liquid LB medium (comprising 10 g/L tryptone, 5 g/L yeast extract, and 10 g/L NaCl) at 37 °C until reaching mid-log phase. Subsequently, the bacterial concentration was adjusted to 1 × 10^6 colony-forming units (CFU)/mL. The peptides were then diluted serially with phosphate-buffered saline (PBS), followed by the addition of 50 μL of the diluted peptides to 50 μL of the bacterial suspension in a 96-well plate (Corning Inc., Lowell, MA, USA). After incubating at 37 °C for 18 to 20 h, the absorbance of each well was measured using a multi-well microplate reader (SpectraMax M5; Molecular Devices, Sunnyvale, CA, USA) at 600 nm.
# [2] = test system: human erythrocytes versus five bacterial strains; assay: Therapeutic index (MHC/GM of MIC); conditions: for Fold (TI of analogue compared with SAAP-148): TI change relative to SAAP-148; for TI (MHC/MIC): ratio of MHC to geometric mean of MIC (five strains)
# Experimental: The geometric mean of minimum inhibitory concentration (MIC) values (GM) from the five strains was calculated to provide a comprehensive assessment of antimicrobial activity, as presented in Table 4.
# The therapeutic index (TI) is a widely utilized parameter for indicating the specificity of antimicrobial agents, which is determined by the ratio of MHC (hemolytic activity) and MIC (antimicrobial activity). Consequently, larger TI values signify greater antimicrobial specificity. The TI can be enhanced through one of three mechanisms: increasing antimicrobial activity, reducing hemolytic activity while maintaining antimicrobial activity, or a combination of both augmenting antimicrobial activity and diminishing hemolytic activity.
# five bacterial strains = assay: MICs against all five bacterial strains (geometric mean, range); assay type: cell-based; set-up: unit not given here; conditions: geometric mean of MICs against all five bacterial strains
# Experimental: as §2
# [3] = test system: Staphylococcus aureus (1.8721); assay type: cell-based
# Text: as §1, §2
# [4] = test system: Staphylococcus epidermidis (1.4260); assay type: cell-based
# Text: as §1, §2
# [5] = test system: Escherichia coli (1.8732); assay type: cell-based
# Text: as §1, §2
# [6] = test system: Pseudomonas aeruginosa (1.2421); assay type: cell-based
# Text: as §1, §2
# [7] = Reversed-phase HPLC retention time as measure of peptide hydrophobicity; assay type: physicochemical; conditions: retention time by reverse-phase HPLC, reflects hydrophobicity difference between analogues
# Text: The physicochemical parameters crucial for the antimicrobial activity of AMPs have been identified, encompassing net charge, helicity, hydrophobicity, and amphipathicity. The hydropathicity, mean relative hydrophobic moment, and charge of peptides were predicted using the HeliQuest (https://heliquest.ipmc.cnrs.fr/ (accessed on 12 March 2024)). Lysine is a hydrophilic amino acid, and its substitution leads to a decrease in the hydrophobicity of the SAAP-148 analogue. The anticipated results are consistent, with the degree of reduction in […] varying depending on the position at which lysine is substituted (Table 2). The amphipathicity of the peptides, as denoted by the μH (mean relative hydrophobic moment), is elaborated on in Table 2. The hydrophobic moment of SAAP-148 analogues was decreased except for SAAP-10, which is on account of the substitution occurring on the18th residue. (Figure 1) The 18th residue of SAAP-148 is glutamine, a polar amino acid residue, located at the junction of the hydrophobic and hydrophilic surfaces of the SAAP-148 α-helix. […] The retention time data determined by reversed-phase high-performance liquid chromatography (RP-HPLC) reflects the hydrophobicity difference between peptide analogues. It is well documented that the formation of a hydrophobic-binding domain due to peptide secondary structure can affect peptide interactions with reversed-phase matrices. This effect was observed particularly for amphipathic α-helical peptides. Given this preferred binding domain, amphipathic α-helical peptides are considerably more retentive than non-amphipathic peptides with the same amino acid composition.
# This phenomenon was particularly evident in the case of amphipathic α-helical peptides. […] This discrepancy may be attributed to the lack of a well-defined α-helical structure in SAAP-148 and its analogues (Figure S1).
# [8] = CD spectra, secondary structure by BeStSel; assay type: physicochemical; conditions: 30 μM SDS as printed, 100 μM peptide, 25 °C
# Experimental: CD spectra (Figure S1) were acquired using a JASCO J-1500 spectropolarimeter (JASCO Inc., Easton, MD, USA) in 0.1 cm pathlength cells under nitrogen at 25 °C. The spectra were recorded in the range of 190 to 250 nm at a peptide concentration of 100 μM in SDS. Secondary structure was determined using the BeStSel server. Hydropathicity, mean relative hydrophobic moment, and charge of peptides were predicted using the HeliQuest (https://heliquest.ipmc.cnrs.fr/ (accessed on 12 March 2024)). The 3D structure of SAAP-148 and its analogues (Figure S2) was predicted using PEP-FOLD4 servers (https://bioserv.rpbs.univ-paris-diderot.fr/services/PEP-FOLD4/ (accessed on 19 June 2024)).
# [9] = test system: Gram-positive bacteria (S. aureus, S. epidermidis); assay: Geometric mean of MICs against Gram-positive bacteria; assay type: cell-based; set-up: unit not given here
# Experimental: as §2
# [10] = test system: Gram-negative bacteria (E. coli, P. aeruginosa, K. pneumoniae); assay: Geometric mean of MICs against Gram-negative bacteria; assay type: cell-based; set-up: unit not given here
# Experimental: as §2
# human erythrocytes = assay: Haemolytic activity; assay type: cell-based
# Experimental: The haemolytic activity of the peptides was evaluated using a standard procedure with minor adjustments. Fresh human erythrocytes were washed thrice and subsequently resuspended at 1.25% haematocrit in PBS. Forty microlitres PBS-diluted peptide solution was added to a 96-well plate (Corning Inc., Lowell, MA, USA), and 160 μL of erythrocytes was added. After incubation at 37 °C for 30 min, the samples were centrifuged, and the absorbance of the supernatant was measured at 450 nm using a multi-well microplate reader (SpectraMax M5; Molecular Devices, Sunnyvale, CA, USA) and compared with the 100% haemolysis caused by 0.1% Triton X-100. The percentage of haemolysis was calculated according to the equation: Haemolysis%=Asample−Ablank/Atriton−Ablank×100
Substance,MIC K. pneumoniae [1] [µM],Fold (TI of analogue compared with SAAP-148) [2],TI (MHC/MIC) [2],MIC (GM) (five bacterial strains),MIC S. aureus [3] [µM],MIC S. epidermidis [4] [µM],MIC E. coli [5] [µM],MIC P. aeruginosa [6] [µM],Rt [7] [min],Others [8] [%],Turn [8] [%],α-Helix [8] [%],β-Antiparallel [8] [%],β-Parallel [8] [%],GM to G+ [9],GM to G− [10],fold increase of MHC over that of SAAP-148 (human erythrocytes) [fold]
LKRVWKRVFKLLKRYWRQKKKPVR-NH2 [SAAP-11],100.00,0.45,0.05,14.36,50.00,3.13,6.25,6.25,15.926,0,0,100,0,0,12.51,15.75,–
LKRVWKRVFKLLKRKWRQLKKPVR-NH2 [SAAP-8],25.00,6,0.66,4.74,25.00,1.56,1.56,1.56,13.475,0,0,100,0,0,6.24,3.93,–
LKRVWKRKFKLLKRYWRQLKKPVR-NH2 [SAAP-4],100.00,83.55,9.19,10.88,100.00,3.13,1.56,3.13,9.96,3.6,0,50.9,45.5,0,17.69,7.87,133.33
LKRVWKRVFKLLKRYWRQLKKPKR-NH2 [SAAP-13],25.00,0.45,0.05,14.36,50.00,6.25,6.25,12.50,16.867,1.2,0,98.8,0,0,17.68,12.5,–
LKRVWKRVFKLLKRYKRQLKKPVR-NH2 [SAAP-9],12.50,9.09,1.00,6.25,50.00,3.13,3.13,1.56,11.941,0,0,100,0,0,12.51,3.94,–
LKRVWKRVFKKLKRYWRQLKKPVR-NH2 [SAAP-6],6.25,15.82,1.74,3.59,25.00,1.56,1.56,1.56,9.213,0,0,84.4,15.6,0,6.24,2.48,–
LKRVKKRVFKLLKRYWRQLKKPVR-NH2 [SAAP-3],6.25,72.73,8.00,6.25,100.00,3.13,1.56,3.13,11.208,0,0,100,0,0,17.69,3.12,–
LKRVWKRVKKLLKRYWRQLKKPVR-NH2 [SAAP-5],6.25,10.45,1.15,5.44,25.00,3.13,1.56,6.25,10.681,0,0,100,0,0,8.85,3.94,–
